Measured values: US20230085307A1, “PYRIDAZINONE COMPOUND AND HERBICIDE” (NISSAN CHEMICAL CORPORATION, priority 2019, published 2023)

What follows are compounds tested on barnyard grass (assay: Test Example 3: herbicidal effect by foliage application, Wagner pot (Table 18, symbol H)). Conditions: 320 g/ha.
Format: in vivo, barnyard grass (Echinochloa crus-galli)
Outline: (§1)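 Plants were sown in alluvial soil held under 0.1–0.5 cm standing water and grown 14 days in a greenhouse at 25–30 °C. An emulsifiable formulation, water-diluted to the set dose, was then sprayed onto the foliage, and effects were scored three weeks later using previously defined criteria.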
`Cc1nn(C)c(=O)c(-c2c(-c3ccccc3OC(F)(F)F)sc3ccccc23)c1O` [1-030] was tested, and the “herbicidal effect on H (barnyard grass), rating 0-5” value was 5 (Herbicidal rate of 90% or more (almost completely withered)). With `CCCC(=O)Oc1c(C)nn(C)c(=O)c1-c1c(-c2ccc(C(C)=NOC)cc2)sc2ccccc12` [1-044] the “herbicidal effect on H (barnyard grass), rating 0-5” value was 4 (Herbicidal rate of 70% or more and less than 90%).

What follows are compounds tested on oval-leafed pondweed (assay: Test Example 1: herbicidal activity, application before weed generation under submerged conditions (Table 16, symbol C)). Conditions: 320 g/ha applied herbicide.
Format: in vivo, oval-leafed pondweed (Monochoria vaginalis)
Outline: (§2)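 Submerged Wagner pots (alluvial soil, 4 cm water) sown with weed seeds and planted with 2.5-leaf rice seedlings; emulsifiable concentrate diluted in water applied to water surface on sowing day. Held in greenhouse at 25-30 °C; injury scored 0-5 by herbicidal rate after three weeks.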
For `Cc1nn(C)c(=O)c(-c2c(-c3ccccc3OC(F)(F)F)sc3ccccc23)c1O` [1-030], the “Herbicidal effect on C: oval-leafed pondweed (grade 0-5)” value was 4 (Herbicidal rate of 70% or more and less than 90%). With `CCCC(=O)Oc1c(C)nn(C)c(=O)c1-c1c(-c2ccc(C(C)=NOC)cc2)sc2ccccc12` [1-044] the “Herbicidal effect on C: oval-leafed pondweed (grade 0-5)” value was 5 (Herbicidal rate of 90% or more (almost completely withered)).

These compounds were tested on windgrass (assay: Test Example 5: herbicidal effect by foliage application, plastic box (Table 20, symbol L)). Conditions: foliage application, 320 g/ha, three weeks after application.
Format: in vivo, windgrass (Apera spica-venti)
Outline: (§3)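 Foliar spray test: emulsion formulation diluted in water to a set application rate, sprayed onto 14-day-old plants raised in diluvial soil at 25° C to 30° C under glass. Both herbicidal effect and crop effect rated visually three weeks later.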
In the case of `Cc1nn(C)c(=O)c(-c2c(-c3ccccc3OC(F)(F)F)sc3ccccc23)c1O` [1-030], the “herbicidal effect grade, L: windgrass” value is reported as 5 (Herbicidal rate of 90% or more (almost completely withered)). With `CCCC(=O)Oc1c(C)nn(C)c(=O)c1-c1c(-c2ccc(C(C)=NOC)cc2)sc2ccccc12` [1-044] the “herbicidal effect grade, L: windgrass” value was 3 (Herbicidal rate of 40% or more and less than 70%).

What follows are compounds tested on Japanese bulrush (assay: Test Example 1: herbicidal activity, application before weed generation under submerged conditions (Table 16, symbol B)). Conditions: 320 g/ha applied herbicide.
Format: in vivo, Japanese bulrush (Schoenoplectus juncoides)
Outline: as §2
`Cc1nn(C)c(=O)c(-c2c(-c3ccccc3OC(F)(F)F)sc3ccccc23)c1O` [1-030] was tested, and the “Herbicidal effect on B: Japanese bulrush (grade 0-5)” value was 5 (Herbicidal rate of 90% or more (almost completely withered)). In the case of `CCCC(=O)Oc1c(C)nn(C)c(=O)c1-c1c(-c2ccc(C(C)=NOC)cc2)sc2ccccc12` [1-044], the “Herbicidal effect on B: Japanese bulrush (grade 0-5)” value is reported as 5 (Herbicidal rate of 90% or more (almost completely withered)).

Each compound was assayed on wild oat (assay: Test Example 5: herbicidal effect by foliage application, plastic box (Table 20, symbol I)). Conditions: foliage application, 320 g/ha, three weeks after application.
Format: in vivo, wild oat (Avena fatua)
Outline: as §3
With `Cc1nn(C)c(=O)c(-c2c(-c3ccccc3OC(F)(F)F)sc3ccccc23)c1O` [1-030] the “herbicidal effect grade, I: wild oat” value was 4 (Herbicidal rate of 70% or more and less than 90%). For `CCCC(=O)Oc1c(C)nn(C)c(=O)c1-c1c(-c2ccc(C(C)=NOC)cc2)sc2ccccc12` [1-044], the “herbicidal effect grade, I: wild oat” value was 4 (Herbicidal rate of 70% or more and less than 90%).

These compounds were tested on rice flat sedge (assay: Test Example 3: herbicidal effect by foliage application, Wagner pot (Table 18, symbol E)). Conditions: 320 g/ha.
Format: in vivo, rice flat sedge (Cyperus iria)
Outline: as §1
`Cc1nn(C)c(=O)c(-c2c(-c3ccccc3OC(F)(F)F)sc3ccccc23)c1O` [1-030] was tested, and the “herbicidal effect on E (rice flat sedge), rating 0-5” value was 4 (Herbicidal rate of 70% or more and less than 90%). For `CCCC(=O)Oc1c(C)nn(C)c(=O)c1-c1c(-c2ccc(C(C)=NOC)cc2)sc2ccccc12` [1-044], the “herbicidal effect on E (rice flat sedge), rating 0-5” value was 5 (Herbicidal rate of 90% or more (almost completely withered)).

The compounds below were run on Chinese sprangletop (assay: Test Example 3: herbicidal effect by foliage application, Wagner pot (Table 18, symbol D)). Conditions: 320 g/ha.
Format: in vivo, chinese sprangletop (Leptochloa chinensis)
Outline: as §1
For `Cc1nn(C)c(=O)c(-c2c(-c3ccccc3OC(F)(F)F)sc3ccccc23)c1O` [1-030], the “herbicidal effect on D (Chinese sprangletop), rating 0-5” value was 3 (Herbicidal rate of 40% or more and less than 70%). For `CCCC(=O)Oc1c(C)nn(C)c(=O)c1-c1c(-c2ccc(C(C)=NOC)cc2)sc2ccccc12` [1-044], the “herbicidal effect on D (Chinese sprangletop), rating 0-5” value was 4 (Herbicidal rate of 70% or more and less than 90%).

The compounds below were run on persian speedwell (assay: Test Example 4: herbicidal effect by soil treatment (Table 19, symbol R)). Conditions: amount of applied herbicide 320 g/ha.
Format: in vivo, Persian speedwell (Veronica persica)
Outline: (§4)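 Step 1: sow seeds in sterilized diluvial soil, cover ~1.5 cm. Step 2: spray diluted emulsion onto soil surface at predetermined rate. Step 3: greenhouse, 25–30° C, three weeks. Step 4: grade effect on each plant by earlier criteria.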
With `Cc1nn(C)c(=O)c(-c2c(-c3ccccc3OC(F)(F)F)sc3ccccc23)c1O` [1-030] the “herbicidal effect rating, R: persian speedwell” value was 5 (Herbicidal rate of 90% or more (almost completely withered)). `CCCC(=O)Oc1c(C)nn(C)c(=O)c1-c1c(-c2ccc(C(C)=NOC)cc2)sc2ccccc12` [1-044] was tested, and the “herbicidal effect rating, R: persian speedwell” value was 5 (Herbicidal rate of 90% or more (almost completely withered)).

The compounds below were run on southern crabgrass (assay: Test Example 5: herbicidal effect by foliage application, plastic box (Table 20, symbol F)). Conditions: foliage application, 320 g/ha, three weeks after application.
Format: in vivo, southern crabgrass (Digitaria ciliaris)
Outline: as §3
For `Cc1nn(C)c(=O)c(-c2c(-c3ccccc3OC(F)(F)F)sc3ccccc23)c1O` [1-030], the “herbicidal effect grade, F: southern crabgrass” value was 5 (Herbicidal rate of 90% or more (almost completely withered)). For `CCCC(=O)Oc1c(C)nn(C)c(=O)c1-c1c(-c2ccc(C(C)=NOC)cc2)sc2ccccc12` [1-044], the “herbicidal effect grade, F: southern crabgrass” value was 4 (Herbicidal rate of 70% or more and less than 90%).

Each compound was assayed on chickweed (assay: Test Example 4: herbicidal effect by soil treatment (Table 19, symbol P)). Conditions: amount of applied herbicide 320 g/ha.
Format: in vivo, common chickweed (Stellaria media)
Outline: as §4
With `Cc1nn(C)c(=O)c(-c2c(-c3ccccc3OC(F)(F)F)sc3ccccc23)c1O` [1-030] the “herbicidal effect rating, P: chickweed” value was 5 (Herbicidal rate of 90% or more (almost completely withered)). `CCCC(=O)Oc1c(C)nn(C)c(=O)c1-c1c(-c2ccc(C(C)=NOC)cc2)sc2ccccc12` [1-044] was tested, and the “herbicidal effect rating, P: chickweed” value was 5 (Herbicidal rate of 90% or more (almost completely withered)).

The compounds below were run on Italian ryegrass (assay: Test Example 4: herbicidal effect by soil treatment (Table 19, symbol K)). Conditions: amount of applied herbicide 320 g/ha.
Format: in vivo, Italian ryegrass (Lolium multiflorum)
Outline: as §4
For `Cc1nn(C)c(=O)c(-c2c(-c3ccccc3OC(F)(F)F)sc3ccccc23)c1O` [1-030], the “herbicidal effect rating, K: Italian ryegrass” value was 3 (Herbicidal rate of 40% or more and less than 70%). `CCCC(=O)Oc1c(C)nn(C)c(=O)c1-c1c(-c2ccc(C(C)=NOC)cc2)sc2ccccc12` [1-044] was tested, and the “herbicidal effect rating, K: Italian ryegrass” value was 2 (Herbicidal rate of 20% or more and less than 40%).

These compounds were tested on redroot pigweed (assay: Test Example 5: herbicidal effect by foliage application, plastic box (Table 20, symbol N)). Conditions: foliage application, 320 g/ha, three weeks after application.
Format: in vivo, redroot pigweed (Amaranthus retroflexus)
Outline: as §3
`Cc1nn(C)c(=O)c(-c2c(-c3ccccc3OC(F)(F)F)sc3ccccc23)c1O` [1-030] was tested, and the “herbicidal effect grade, N: redroot pigweed” value was 5 (Herbicidal rate of 90% or more (almost completely withered)). In the case of `CCCC(=O)Oc1c(C)nn(C)c(=O)c1-c1c(-c2ccc(C(C)=NOC)cc2)sc2ccccc12` [1-044], the “herbicidal effect grade, N: redroot pigweed” value is reported as 5 (Herbicidal rate of 90% or more (almost completely withered)).

What follows are compounds tested on velvetleaf (assay: Test Example 5: herbicidal effect by foliage application, plastic box (Table 20, symbol M)). Conditions: foliage application, 320 g/ha, three weeks after application.
Format: in vivo, velvetleaf (Abutilon theophrasti)
Outline: as §3
With `Cc1nn(C)c(=O)c(-c2c(-c3ccccc3OC(F)(F)F)sc3ccccc23)c1O` [1-030] the “herbicidal effect grade, M: velvetleaf” value was 5 (Herbicidal rate of 90% or more (almost completely withered)). In the case of `CCCC(=O)Oc1c(C)nn(C)c(=O)c1-c1c(-c2ccc(C(C)=NOC)cc2)sc2ccccc12` [1-044], the “herbicidal effect grade, M: velvetleaf” value is reported as 5 (Herbicidal rate of 90% or more (almost completely withered)).

The compounds below were run on late watergrass (assay: Test Example 1: herbicidal activity, application before weed generation under submerged conditions (Table 16, symbol A)). Conditions: 320 g/ha applied herbicide.
Format: in vivo, late watergrass (Echinochloa oryzicola)
Outline: as §2
`Cc1nn(C)c(=O)c(-c2c(-c3ccccc3OC(F)(F)F)sc3ccccc23)c1O` [1-030] was tested, and the “Herbicidal effect on A: late watergrass (grade 0-5)” value was 2 (Herbicidal rate of 20% or more and less than 40%). In the case of `CCCC(=O)Oc1c(C)nn(C)c(=O)c1-c1c(-c2ccc(C(C)=NOC)cc2)sc2ccccc12` [1-044], the “Herbicidal effect on A: late watergrass (grade 0-5)” value is reported as 5 (Herbicidal rate of 90% or more (almost completely withered)).

The compounds below were run on barnyard grass (assay: Test Example 5: herbicidal effect by foliage application, plastic box (Table 20, symbol H)). Conditions: foliage application, 320 g/ha, three weeks after application.
Format: in vivo, barnyard grass (Echinochloa crus-galli)
Outline: as §3
`Cc1nn(C)c(=O)c(-c2c(-c3ccccc3OC(F)(F)F)sc3ccccc23)c1O` [1-030] was tested, and the “herbicidal effect grade, H: barnyard grass” value was 4 (Herbicidal rate of 70% or more and less than 90%). `CCCC(=O)Oc1c(C)nn(C)c(=O)c1-c1c(-c2ccc(C(C)=NOC)cc2)sc2ccccc12` [1-044] was tested, and the “herbicidal effect grade, H: barnyard grass” value was 3 (Herbicidal rate of 40% or more and less than 70%).

The compounds below were run on lambsquarters (assay: Test Example 4: herbicidal effect by soil treatment (Table 19, symbol O)). Conditions: amount of applied herbicide 320 g/ha.
Format: in vivo, lambsquarters (Chenopodium album)
Outline: as §4
`Cc1nn(C)c(=O)c(-c2c(-c3ccccc3OC(F)(F)F)sc3ccccc23)c1O` [1-030] was tested, and the “herbicidal effect rating, O: lambsquarters” value was 5 (Herbicidal rate of 90% or more (almost completely withered)). With `CCCC(=O)Oc1c(C)nn(C)c(=O)c1-c1c(-c2ccc(C(C)=NOC)cc2)sc2ccccc12` [1-044] the “herbicidal effect rating, O: lambsquarters” value was 4 (Herbicidal rate of 70% or more and less than 90%).

What follows are compounds tested on chickweed (assay: Test Example 5: herbicidal effect by foliage application, plastic box (Table 20, symbol P)). Conditions: foliage application, 320 g/ha, three weeks after application.
Format: in vivo, common chickweed (Stellaria media)
Outline: as §3
For `Cc1nn(C)c(=O)c(-c2c(-c3ccccc3OC(F)(F)F)sc3ccccc23)c1O` [1-030], the “herbicidal effect grade, P: chickweed” value was 5 (Herbicidal rate of 90% or more (almost completely withered)). With `CCCC(=O)Oc1c(C)nn(C)c(=O)c1-c1c(-c2ccc(C(C)=NOC)cc2)sc2ccccc12` [1-044] the “herbicidal effect grade, P: chickweed” value was 5 (Herbicidal rate of 90% or more (almost completely withered)).

These compounds were tested on blackgrass (assay: Test Example 5: herbicidal effect by foliage application, plastic box (Table 20, symbol J)). Conditions: foliage application, 320 g/ha, three weeks after application.
Format: in vivo, blackgrass (Alopecurus myosuroides)
Outline: as §3
For `Cc1nn(C)c(=O)c(-c2c(-c3ccccc3OC(F)(F)F)sc3ccccc23)c1O` [1-030], the “herbicidal effect grade, J: blackgrass” value was 5 (Herbicidal rate of 90% or more (almost completely withered)). With `CCCC(=O)Oc1c(C)nn(C)c(=O)c1-c1c(-c2ccc(C(C)=NOC)cc2)sc2ccccc12` [1-044] the “herbicidal effect grade, J: blackgrass” value was 3 (Herbicidal rate of 40% or more and less than 70%).

Each compound was assayed on windgrass (assay: Test Example 4: herbicidal effect by soil treatment (Table 19, symbol L)). Conditions: amount of applied herbicide 320 g/ha.
Format: in vivo, windgrass (Apera spica-venti)
Outline: as §4
`Cc1nn(C)c(=O)c(-c2c(-c3ccccc3OC(F)(F)F)sc3ccccc23)c1O` [1-030] was tested, and the “herbicidal effect rating, L: windgrass” value was 5 (Herbicidal rate of 90% or more (almost completely withered)). For `CCCC(=O)Oc1c(C)nn(C)c(=O)c1-c1c(-c2ccc(C(C)=NOC)cc2)sc2ccccc12` [1-044], the “herbicidal effect rating, L: windgrass” value was 0 (Herbicidal rate of 5% or less (almost no effect)).
